Measurements from US10383873B2, “Method and kits for identifying of CDK9 inhibitors for the treatment of cancer” (Memorial Sloan-Kettering Cancer Center, priority 2014, dated 2019).

What was measured:
[1] = system: human and murine cell lines; assay: Comparison of inhibitor IC50 with anti-proliferative effects of CDK9 shRNAs; format: cell-based; conditions: IC50 compared with competitive proliferation assays
From the text: (FIG. 3A) Scatter plot illustrating the correlation between anti-proliferative effects of CDK9 shRNAs and the IC50 of PHA-767491 in six human cell lines. The correlation and p values of three additional CDK9 inhibitors and one DNA replication inhibitor (aphidicolin) are also shown in the right panel. The survival is defined as the average of the survival ratio of two shRNAs in competitive proliferation assay. (FIG. 3B) Proliferation rates of PHA-767491-treated human cells, calculated by measuring the change in viable cell number after 72 h in culture and fitting data to an exponential growth curve. Results were normalized to the proliferation rate of vehicle (H2O) treated cells, set to 1. Values are mean+/−SD of three independent replicates. (FIG. 3C) Summary of PHA-767491 IC50 values of human cell lines in FIG. 3A. […]
Competitive proliferation assays using shRNAs in TRMPV-Neo vector (with miR-30 or miR-E backbone) were performed as described previously (Zuber J, et al. Nature (2011) 478: 524-528). […] Proliferation rates were calculated by dividing cell concentration at 72 h and cell concentration at 0 h, divided by 72. Relative proliferation rates were calculated by normalizing to the rate of vehicle-treated cells. Population doublings were calculated by calculating log 2 (cells at end point/cells at initial point) divided by time in days. […]

CDK9 = CDK9 (Homo sapiens, UniProt P50750); conditions: versus other available inhibitors
Ser2 of RNA pol II = assay: Immunoblot of Pol II Ser2 phosphorylation in tumors; format: in vivo, mice
From the text: Mice were maintained under specific pathogen-free conditions, and food and water were provided ad libitum. […] One million murine or human HCC cells were ortothopically transplantated into female nude recipient mice (NCR nu/nu, purchased from Charles River laboratories and Harlan Laboratories), as described previously (Saborowski et al. 2013 Proc Natl Acad Sci USA. 2013 Nov. 26; 110(48):19513-8. doi: 10.1073/pnas.1311707110.). […] For PHA-767491 treatment trials, PHA-767491 was solved in ultrapure distilled water, filtered by 0.2 M filters, and diluted to a final concentration of 5 mg/ml. Mice were orally given twice daily PHA-767491 (50 mg/kg) or a similar volume of vehicle (water). The sick animals were sacrificed and liver tumors were used for further analysis. Liver tumors were excised, formalin-fixed and paraffin-embedded, frozen, or embedded in OCT.
Liver tissues and cell pellets were lysed in Laemmli buffer or protein lysis buffer (200 mM NaCl, 0.2% NP40, 50 mM Tris at pH 7.5, 1% Tween20, protease and phosphatases inhibitors) using a tissue homogenizer. Equal amounts of protein were separated on 12% SDS-polyacrylamide gels and transferred to PVDF membranes. […] Images were analyzed using the AlphaView software (ProteinSimple). Detection in immunoblots was performed using antibodies for CDK9 (Santa Cruz Biotechnology), MCM6 (Santa Cruz Biotechnology), PSMB2 (Santa Cruz Biotechnology), β-Actin (AC-15, Sigma), p53 (Leica Biosystems), MYC (Abcam), CCNT1 (Santa Cruz Biotechnology), phopho-Ser2 RNA Pol II (Cell Signaling), and RNA Pol II (Santa Cruz Biotechnology).

[2] = system: non-transformed cell lines; assay: Proliferation assay in non-transformed cell lines; format: cell-based; conditions: two non-transformed cell lines, compared with cancer cell lines
Procedure: Dead cells were excluded using propidium iodide (PI) staining to score cells with sub-2N DNA content. Measurements of cell concentration were performed on a Guava Easycyte (Millipore), gating only viable cells (FSC/SSC/PI-). Proliferation rates were calculated by dividing cell concentration at 72 h and cell concentration at 0 h, divided by 72. Relative proliferation rates were calculated by normalizing to the rate of vehicle-treated cells. Population doublings were calculated by calculating log 2 (cells at end point/cells at initial point) divided by time in days.

[3] = system: MYC-overexpressing Alexander cells; assay: Proliferation assay in Alexander cells with enforced MYC expression; format: cell-based, human; conditions: ectopic MYC expression versus empty vector
HepG2 cells = assay: Orthotopic HepG2 HCC xenograft, bioluminescent imaging and Ki67; format: in vivo, mice; conditions: high MYC expressing HepG2; 50 mg/kg twice a day
Procedure: (§1) All mouse experiments were approved by the Memorial Sloan-Kettering Cancer Center (MSKCC) Animal Care and Use Committee (protocol no. 11-06-011). Mice were maintained under specific pathogen-free conditions, and food and water were provided ad libitum. For conditional RNAi experiments in vivo, Tet-on murine HCC MP1 cells were transduced with luciferase-hygro and TRMPV-Neo-miR-E shRNA constructs. […] For whole-body bioluminescent imaging, mice were intraperitoneally injected with 50 mg/kg D-Luciferin (Goldbio), and after 10 min, analysed using an IVIS Spectrum system (Caliper LifeSciences). Quantification was performed using Living Image software (Caliper LifeSciences) with standardized round regions of interests covering the mouse trunk and extremities. […]
(§2) Liver tissues and cell pellets were lysed in Laemmli buffer or protein lysis buffer (200 mM NaCl, 0.2% NP40, 50 mM Tris at pH 7.5, 1% Tween20, protease and phosphatases inhibitors) using a tissue homogenizer. […] The abundance of β-actin was monitored to ensure equal loading. Images were analyzed using the AlphaView software (ProteinSimple). […]

human HCC cell lines [4] = conditions: previous findings; cited from earlier work
Alexander cells = assay: Orthotopic Alexander HCC xenograft, bioluminescent imaging and Ki67; format: in vivo, mice; conditions: low MYC expressing Alexander; same treatment
Procedure: as §1, §2

human HCC cell lines [5] = assay: Cell cycle analysis (BrdU/7-AAD staining) after 48 hours of treatment; format: cell-based; conditions: PHA-767491 treatment
Procedure: (FIG. 3E) Representative flow cytometry plots showing cell cycle analysis (BrdU+7-AAD+ double staining) of cells after 48 hours of PHA-767491 treatment.

SNU-475 cells = assay: Proliferation assay in SNU-475 cells with enforced MYC expression; format: cell-based, human; conditions: MYC levels equivalent to HepG2

CDK9, sequence (P50750 whole entry, species assumed): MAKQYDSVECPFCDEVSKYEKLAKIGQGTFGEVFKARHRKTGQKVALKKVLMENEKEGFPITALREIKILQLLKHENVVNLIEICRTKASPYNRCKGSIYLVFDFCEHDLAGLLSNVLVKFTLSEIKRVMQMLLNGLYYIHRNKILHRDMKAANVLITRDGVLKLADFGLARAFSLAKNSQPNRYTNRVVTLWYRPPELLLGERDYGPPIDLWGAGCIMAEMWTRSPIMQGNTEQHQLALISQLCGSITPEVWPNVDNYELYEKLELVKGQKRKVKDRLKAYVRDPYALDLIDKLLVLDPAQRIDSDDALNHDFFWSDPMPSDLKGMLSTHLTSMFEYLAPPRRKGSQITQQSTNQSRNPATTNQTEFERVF
CDK9, sequence (O60563 whole entry partner, species assumed): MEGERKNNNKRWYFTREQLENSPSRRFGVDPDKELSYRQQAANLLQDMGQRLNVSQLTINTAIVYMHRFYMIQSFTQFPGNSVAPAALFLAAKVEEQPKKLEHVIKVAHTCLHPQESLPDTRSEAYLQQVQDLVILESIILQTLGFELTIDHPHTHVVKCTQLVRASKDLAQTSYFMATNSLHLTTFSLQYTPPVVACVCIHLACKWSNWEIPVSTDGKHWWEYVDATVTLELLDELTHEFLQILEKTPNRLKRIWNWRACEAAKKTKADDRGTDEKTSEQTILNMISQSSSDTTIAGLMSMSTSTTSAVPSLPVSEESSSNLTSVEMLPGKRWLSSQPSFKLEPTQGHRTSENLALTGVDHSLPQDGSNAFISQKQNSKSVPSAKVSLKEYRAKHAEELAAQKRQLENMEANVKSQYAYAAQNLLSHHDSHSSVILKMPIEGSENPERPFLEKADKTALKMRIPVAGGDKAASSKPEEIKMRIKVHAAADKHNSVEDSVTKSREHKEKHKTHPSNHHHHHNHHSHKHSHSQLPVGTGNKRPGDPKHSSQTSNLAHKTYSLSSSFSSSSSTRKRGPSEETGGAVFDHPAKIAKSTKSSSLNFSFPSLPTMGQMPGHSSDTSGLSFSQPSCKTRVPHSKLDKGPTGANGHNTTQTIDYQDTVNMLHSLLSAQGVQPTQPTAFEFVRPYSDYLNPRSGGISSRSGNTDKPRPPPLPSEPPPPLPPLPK

| Compound | similarity of activity spectrum to CDK9 shRNAs [1] | selectivity for CDK9 (CDK9) | Pol II Ser2 phosphorylation in tumors (Ser2 of RNA pol II; human HCC xenografts, 50 mg/kg twice a day, 50 mg/kg) | Pol II Ser2 phosphorylation in Alexander tumors (Ser2 of RNA pol II; low MYC expressing Alexander xenografts) | total RNA pol II levels in tumors (Ser2 of RNA pol II; two representative tumors) | sensitivity to treatment [2] | sensitivity to CDK9 inhibition [3] | tumor growth (HepG2 cells) | tumor-cell proliferation (HepG2 cells) | p53 dependence of proliferation inhibition (human HCC cell lines [4]) | effect on tumor-cell proliferation and tumor growth (Alexander cells) | cell cycle effect (human HCC cell lines [5]) | sensitivity compared with HepG2 cells (SNU-475 cells) |
| --- | --- | --- | --- | --- | --- | --- | --- | --- | --- | --- | --- | --- | --- |
| C[C@@]1(CO)[C@H](O)CC[C@@]2(C)[C@H]1CC[C@H]1C[C@@H]3C[C@@]12CC[C@]3(O)CO [aphidicolin] | did not mimic the effects of CDK9 shRNAs | – | – | – | – | – | – | – | – | – | – | – | – |
| O=C1NCCc2[nH]c(-c3ccncc3)cc21 [PHA-767491] | most closely recapitulated shRNA-mediated CDK9 inhibition | more selective for CDK9 than other available inhibitors | decrease in the levels of phosphorylation of Ser2 of RNA pol II | detectable decrease in Pol II Ser2 phosphorylation | mild changes in total RNA pol II levels | consistently less sensitive | became more sensitive | substantial inhibition of tumor growth and some tumor regressions | decreased tumor-cell proliferation | inhibits cancer cell proliferation through p53-independent mechanisms | little if any effect | triggered cell-cycle arrest | produced a similar sensitivity |
